Activity calls are given as the source filed them.
Legend:
[1] = molecular target: T1, DNA dC->dU-editing enzyme APOBEC-3A (Homo sapiens, UniProt P31941); test: SAR analysis of small molecule inhibitors of APOBEC3A DNA Deaminase via a fluorescence-based single-stranded DNA deaminase assay - Set 2.; type: functional; conditions: read-out: IC50_Mean
[2] = molecular target: T1, DNA dC->dU-editing enzyme APOBEC-3A; test: APOBEC3A DNA deaminase inhibitors, dose response, biochemical (AID 504722); type: functional
[3] = molecular target: T2, DNA dC->dU-editing enzyme APOBEC-3G (Homo sapiens, UniProt Q9HC16); test: SAR analysis of small molecule inhibitors of APOBEC3G DNA Deaminase via a fluorescence-based single-stranded DNA deaminase assay - Set 2.; type: functional; conditions: read-out: IC50_Mean
Leucine aminopeptidase = molecular target: T3, Leucine aminopeptidase (Plasmodium falciparum 3D7, UniProt Q8IL11); test: P. falciparum M17LAP inhibitors, primary screen, biochemical, fluorogenic H-Leu-NHMec substrate, 1536-well (AID 1619); type: functional
T3 sequence (Q8IL11 whole entry): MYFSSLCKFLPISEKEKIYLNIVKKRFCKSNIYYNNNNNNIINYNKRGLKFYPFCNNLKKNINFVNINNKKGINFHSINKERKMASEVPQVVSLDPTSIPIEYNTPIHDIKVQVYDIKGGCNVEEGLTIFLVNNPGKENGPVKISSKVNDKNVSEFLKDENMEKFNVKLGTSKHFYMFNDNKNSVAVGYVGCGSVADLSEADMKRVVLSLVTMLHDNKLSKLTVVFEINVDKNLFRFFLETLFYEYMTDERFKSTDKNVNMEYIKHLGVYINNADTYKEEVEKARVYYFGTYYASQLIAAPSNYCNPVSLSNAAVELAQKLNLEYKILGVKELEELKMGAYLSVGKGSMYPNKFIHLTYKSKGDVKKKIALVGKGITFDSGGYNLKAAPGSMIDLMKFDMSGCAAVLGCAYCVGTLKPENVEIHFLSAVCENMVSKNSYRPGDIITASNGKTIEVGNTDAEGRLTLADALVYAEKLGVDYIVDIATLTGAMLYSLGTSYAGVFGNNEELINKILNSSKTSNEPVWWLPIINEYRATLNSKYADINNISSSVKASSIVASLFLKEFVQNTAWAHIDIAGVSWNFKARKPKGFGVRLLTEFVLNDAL

[4] = molecular target: FAD-linked sulfhydryl oxidase ALR (Homo sapiens, UniProt P55789); test: inhibitors of human ALR sulfhydryl oxidase, dose response, biochemical, H2O2 detection, luminescence, cherry-pick (AID 493248)
[5] = molecular target: T4, Mannose-6-phosphate isomerase (Homo sapiens, UniProt P34949); test: PMI enzyme inhibitors, confirmation, biochemical, fluorescence intensity (AID 1535)
T4 sequence (P34949 whole entry): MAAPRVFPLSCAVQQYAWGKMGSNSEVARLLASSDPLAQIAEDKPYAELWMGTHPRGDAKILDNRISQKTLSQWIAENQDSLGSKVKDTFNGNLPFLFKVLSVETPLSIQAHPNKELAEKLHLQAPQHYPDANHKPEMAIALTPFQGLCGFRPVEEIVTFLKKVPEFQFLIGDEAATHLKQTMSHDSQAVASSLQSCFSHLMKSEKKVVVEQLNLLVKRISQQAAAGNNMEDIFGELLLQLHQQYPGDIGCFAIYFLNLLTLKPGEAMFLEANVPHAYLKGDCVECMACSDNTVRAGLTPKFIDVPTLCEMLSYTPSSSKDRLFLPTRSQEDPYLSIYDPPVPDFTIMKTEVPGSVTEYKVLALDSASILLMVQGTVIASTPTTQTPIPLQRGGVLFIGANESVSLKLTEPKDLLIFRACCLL

Phosphomannomutase 2 = Phosphomannomutase 2 (Homo sapiens, UniProt O15305); test: Counter screen SAR assay for PMM2 inhibitors via a fluorescence intensity assay. [Related pubchem assays (depositor defined):AID1545, AID1574]
[6] = molecular target: T1, DNA dC->dU-editing enzyme APOBEC-3A; test: SAR analysis of small molecule inhibitors of APOBEC3A DNA Deaminase via a fluorescence-based single-stranded DNA deaminase assay.; type: functional; conditions: read-out: IC50_Mean
[7] = molecular target: Luciferin 4-monooxygenase (Photinus pyralis, UniProt P08659); test: firefly luciferase enzyme inhibitors, dose response, biochemical, luminescence (AID 1891)
[8] = molecular target: T2, DNA dC->dU-editing enzyme APOBEC-3G; test: APOBEC3G deaminase inhibitors, SAR follow-up, biochemical, fluorescence, single-stranded DNA substrate (AID 602136); type: functional; conditions: read-out: IC50_Mean
[9] = molecular target: T2, DNA dC->dU-editing enzyme APOBEC-3G; test: Dose Response confirmation of small molecule APOBEC3G DNA Deaminase Inhibitors via a fluorescence-based single-stranded DNA deaminase assay. [Related pubchem assays (depositor defined):AID493012, AID493028]; type: functional
[10] = molecular target: Dual specificity tyrosine-phosphorylation-regulated kinase 1A (Homo sapiens, UniProt Q13627); type: functional;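 also: measured against DYRK1A as one member of a broad kinome profiling panel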
[11] = molecular target: Serine/threonine-protein kinase PAK 4 (Homo sapiens, UniProt O96013); type: functional;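 also: value obtained within a kinome profiling panel in which PAK4 was one of the panel members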
[12] = molecular target: Dual specificity tyrosine-phosphorylation-regulated kinase 1B (Homo sapiens, UniProt Q9Y463); test: Navigating the Kinome. Panel member name: DYRK1B; type: functional
[13] = molecular target: Casein kinase I isoform alpha (Homo sapiens, UniProt P48729); type: functional
Activin receptor type-1 = Activin receptor type-1 (Homo sapiens, UniProt Q04771); test: Navigating the Kinome. Panel member name: ACVR1; type: functional
[14] = molecular target: Mitogen-activated protein kinase kinase kinase kinase 4 (Homo sapiens, UniProt O95819); type: functional
Focal adhesion kinase 1 = Focal adhesion kinase 1 (Homo sapiens, UniProt Q05397); type: functional;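 also: measured as one member of a kinome panel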
[15] = molecular target: Tyrosine-protein kinase receptor TYRO3 (Homo sapiens, UniProt Q06418); type: functional;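 also: TYRO3 value obtained as one member of a kinome-wide profiling panel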
[16] = molecular target: Inhibitor of nuclear factor kappa-B kinase subunit epsilon (Homo sapiens, UniProt Q14164); test: Navigating the Kinome. Panel member name: IKBKE; type: functional
[17] = molecular target: Macrophage colony-stimulating factor 1 receptor (Homo sapiens, UniProt P07333); type: functional;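 also: value comes from the Navigating the Kinome screening panel, CSF1R member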
[18] = molecular target: Mitogen-activated protein kinase kinase kinase kinase 2 (Homo sapiens, UniProt Q12851); type: functional;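 also: measured as one member of a kinome-wide kinase panel, with MAP4K2 as the panel entry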
[19] = molecular target: Dual specificity protein kinase CLK4 (Homo sapiens, UniProt Q9HAZ1); type: functional
[20] = molecular target: Mitogen-activated protein kinase 8 (Homo sapiens, UniProt P45983); type: functional;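 also: value comes from one member of a kinome-wide kinase profiling panel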
[21] = molecular target: Tyrosine-protein kinase BTK (Homo sapiens, UniProt Q06187); type: functional
[22] = molecular target: Cyclin-dependent kinase 7 (Homo sapiens, UniProt P50613); type: functional;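 also: value comes from a kinome-wide kinase profiling panel in which CDK7 is one member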
Aurora kinase B = Aurora kinase B (Homo sapiens, UniProt Q96GD4); type: functional
[23] = molecular target: Platelet-derived growth factor receptor alpha (Homo sapiens, UniProt P16234); test: Navigating the Kinome. Panel member name: PDGFRA; type: functional
[24] = molecular target: Tyrosine-protein kinase ABL1 (Homo sapiens, UniProt P00519); type: functional
[25] = molecular target: Casein kinase I isoform delta (Homo sapiens, UniProt P48730); type: functional;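 also: measured as one member (CSNK1D) of a kinome panel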
[26] = molecular target: Serine/threonine-protein kinase D3 (Homo sapiens, UniProt O94806); type: functional;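 also: determined within a kinase panel screen, with PRKCN as the panel member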
[27] = molecular target: Melanin-concentrating hormone receptor 1 (Homo sapiens, UniProt Q99705); test: Late-stage fluorescence-based counterscreen for antagonists of the G-protein coupled receptor 7 (GPR7): cell-based dose response assay to identify antagonists of the melanin-concentrating hormone receptor 1 (MCHR1) Set 6.; type: functional
[28] = molecular target: T5, Neuropeptides B/W receptor type 1 (Homo sapiens, UniProt P48145); test: GPR7 antagonist potency, late-stage follow-up, cell-based, fluorescence, dose response, set 6 (AID 588583); type: functional
T5 sequence (P48145 whole entry): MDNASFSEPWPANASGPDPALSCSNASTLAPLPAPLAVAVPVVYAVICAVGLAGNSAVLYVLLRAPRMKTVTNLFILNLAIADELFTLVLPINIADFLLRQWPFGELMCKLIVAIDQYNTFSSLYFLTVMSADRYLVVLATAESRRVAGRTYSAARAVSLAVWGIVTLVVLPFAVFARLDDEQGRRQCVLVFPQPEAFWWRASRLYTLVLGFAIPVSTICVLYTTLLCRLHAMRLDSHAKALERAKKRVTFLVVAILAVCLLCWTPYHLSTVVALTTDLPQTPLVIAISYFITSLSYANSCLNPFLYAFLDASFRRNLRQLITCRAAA

[29] = molecular target: Serine/threonine-protein kinase Nek2 (Homo sapiens, UniProt P51955); type: functional
[30] = molecular target: Ribosomal protein S6 kinase beta-1 (Homo sapiens, UniProt P23443); type: functional;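 also: measured as one member of a kinome-wide profiling panel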
[31] = molecular target: Vascular endothelial growth factor receptor 3 (Homo sapiens, UniProt P35916); type: functional;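 also: value from a kinome-wide profiling panel, with FLT4 as the panel member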
[32] = molecular target: Serine/threonine-protein kinase PLK3 (Homo sapiens, UniProt Q9H4B4); type: functional
[33] = molecular target: Serine/threonine-protein kinase PLK1 (Homo sapiens, UniProt P53350); type: functional;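 also: PLK1 measured as one member of a kinome-wide profiling panel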
[34] = Vero cell cytotoxicity, dose response, cytotoxicity control for M. tuberculosis growth inhibitor project, Vero cells, purified and synthesized compounds, set 4 (AID 504854); type: functional; conditions: Mycobacterium tuberculosis
[35] = cytotoxicity toward NIH3T3 fibroblasts, dose response, counter-screen, cell-based, ATP luminescence, mouse fibroblasts (AID 2010); type: functional;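 also: cells exposed to compound for about 90 hours before reading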
[36] = THP-1 cell cytotoxicity, dose response, cytotoxicity control, set 3 (AID 504852); type: functional; conditions: Mycobacterium tuberculosis
[37] = A Cell Based Secondary Assay to Explore Cytotoxicity in HepG2 Cells of Compounds that Modulate Mycobacterium tuberculosis in Media Containing Glycerol versus Media without Glycerol (2).; type: functional
[38] = HepG2 cell cytotoxicity, cytotoxicity control, set 4 (AID 504910); type: functional; conditions: Mycobacterium tuberculosis
[39] = microbe, parasite or virus in culture; type: functional; conditions: Mycobacterium tuberculosis
[40] = inhibitors of intracellular T. cruzi replication, confirmation, NIH3T3 host cells, beta-gal luminescence (AID 2044); type: functional, cell-based;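 also: intracellular parasites grown in NIH/3T3 mouse fibroblasts as host cells; luminescent beta-galactosidase reporter signal from transgenic T. cruzi replicating inside host cells; inhibitors lower the luminescence signal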
[41] = Vero cell cytotoxicity, cytotoxicity control for M. tuberculosis inhibitor project, purified and synthesized samples, set 3 (AID 504684); type: functional
cells = type: functional
[42] = A Cell Based Secondary Assay to Explore Cytotoxicity in THP-1 Cells of Compounds that Modulate Mycobacterium tuberculosis in Media Containing Glycerol versus Media without Glycerol (2).; type: functional
[43] = Vero E6 cell cytotoxicity, dose response, cytotoxicity control for non-replicating M. tuberculosis project, secondary assay (AID 492998); type: functional, VeroE6; conditions: Vero C1008
[44] = HepG2 cell cytotoxicity, dose response, cytotoxicity control, set 3 (AID 504853); type: functional; conditions: Mycobacterium tuberculosis
[45] = THP-1 cell cytotoxicity, cytotoxicity control, set 4 (AID 504911); type: functional; conditions: Mycobacterium tuberculosis
[46] = Vero cell cytotoxicity, dose response, cytotoxicity control for M. tuberculosis growth inhibitor project, Vero cells, purified and synthesized compounds, set 5 (AID 504909); type: functional; conditions: Mycobacterium tuberculosis
[47] = THP-1 cell cytotoxicity, dose response, cytotoxicity control for non-replicating M. tuberculosis project (AID 489025); type: functional

T1 sequence (P31941 whole entry): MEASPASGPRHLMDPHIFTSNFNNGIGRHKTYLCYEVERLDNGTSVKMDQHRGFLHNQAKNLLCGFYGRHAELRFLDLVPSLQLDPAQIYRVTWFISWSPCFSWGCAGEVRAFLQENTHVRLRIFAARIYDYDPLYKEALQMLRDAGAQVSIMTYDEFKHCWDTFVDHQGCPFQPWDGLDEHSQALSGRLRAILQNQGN
T2 sequence (Q9HC16 whole entry): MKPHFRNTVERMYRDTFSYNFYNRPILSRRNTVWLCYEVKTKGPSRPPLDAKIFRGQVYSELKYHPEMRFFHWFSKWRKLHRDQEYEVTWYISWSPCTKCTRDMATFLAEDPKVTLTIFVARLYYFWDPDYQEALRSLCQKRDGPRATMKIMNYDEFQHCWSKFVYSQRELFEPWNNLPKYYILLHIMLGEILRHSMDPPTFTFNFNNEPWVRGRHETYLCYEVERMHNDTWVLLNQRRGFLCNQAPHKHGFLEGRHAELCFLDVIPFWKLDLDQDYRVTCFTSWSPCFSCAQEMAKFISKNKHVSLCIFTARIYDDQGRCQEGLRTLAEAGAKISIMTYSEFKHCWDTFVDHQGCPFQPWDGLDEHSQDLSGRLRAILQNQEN
Chain of Dual specificity tyrosine-phosphorylation-regulated kinase 1B (Q9Y463 whole entry, canonical isoform): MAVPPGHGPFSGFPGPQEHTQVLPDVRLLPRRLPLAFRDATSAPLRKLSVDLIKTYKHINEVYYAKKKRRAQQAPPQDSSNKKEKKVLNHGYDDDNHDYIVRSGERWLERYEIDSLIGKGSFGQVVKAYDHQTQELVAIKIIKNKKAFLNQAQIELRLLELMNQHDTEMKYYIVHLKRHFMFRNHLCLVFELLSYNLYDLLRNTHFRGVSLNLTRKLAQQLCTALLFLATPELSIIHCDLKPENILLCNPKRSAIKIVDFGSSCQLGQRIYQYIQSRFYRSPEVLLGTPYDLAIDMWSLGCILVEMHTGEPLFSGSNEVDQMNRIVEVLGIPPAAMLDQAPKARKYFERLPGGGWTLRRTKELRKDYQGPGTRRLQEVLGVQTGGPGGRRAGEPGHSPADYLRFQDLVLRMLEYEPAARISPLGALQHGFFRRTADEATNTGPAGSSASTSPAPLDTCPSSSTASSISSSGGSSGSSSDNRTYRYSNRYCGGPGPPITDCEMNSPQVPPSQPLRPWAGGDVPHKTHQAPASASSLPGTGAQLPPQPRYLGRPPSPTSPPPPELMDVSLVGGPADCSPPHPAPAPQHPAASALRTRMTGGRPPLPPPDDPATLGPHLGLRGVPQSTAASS
Chain of Casein kinase I isoform alpha (P48729 whole entry, canonical isoform): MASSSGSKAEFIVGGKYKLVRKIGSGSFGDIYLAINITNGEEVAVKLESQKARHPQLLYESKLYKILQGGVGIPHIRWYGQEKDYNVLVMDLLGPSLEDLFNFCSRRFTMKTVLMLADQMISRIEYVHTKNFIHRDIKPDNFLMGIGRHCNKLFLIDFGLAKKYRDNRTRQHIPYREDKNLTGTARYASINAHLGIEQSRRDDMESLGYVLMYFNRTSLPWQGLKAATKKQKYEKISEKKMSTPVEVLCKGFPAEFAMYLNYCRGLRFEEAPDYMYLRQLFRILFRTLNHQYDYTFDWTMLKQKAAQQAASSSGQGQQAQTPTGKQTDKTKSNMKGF
Chain of Mitogen-activated protein kinase kinase kinase kinase 4 (O95819 whole entry): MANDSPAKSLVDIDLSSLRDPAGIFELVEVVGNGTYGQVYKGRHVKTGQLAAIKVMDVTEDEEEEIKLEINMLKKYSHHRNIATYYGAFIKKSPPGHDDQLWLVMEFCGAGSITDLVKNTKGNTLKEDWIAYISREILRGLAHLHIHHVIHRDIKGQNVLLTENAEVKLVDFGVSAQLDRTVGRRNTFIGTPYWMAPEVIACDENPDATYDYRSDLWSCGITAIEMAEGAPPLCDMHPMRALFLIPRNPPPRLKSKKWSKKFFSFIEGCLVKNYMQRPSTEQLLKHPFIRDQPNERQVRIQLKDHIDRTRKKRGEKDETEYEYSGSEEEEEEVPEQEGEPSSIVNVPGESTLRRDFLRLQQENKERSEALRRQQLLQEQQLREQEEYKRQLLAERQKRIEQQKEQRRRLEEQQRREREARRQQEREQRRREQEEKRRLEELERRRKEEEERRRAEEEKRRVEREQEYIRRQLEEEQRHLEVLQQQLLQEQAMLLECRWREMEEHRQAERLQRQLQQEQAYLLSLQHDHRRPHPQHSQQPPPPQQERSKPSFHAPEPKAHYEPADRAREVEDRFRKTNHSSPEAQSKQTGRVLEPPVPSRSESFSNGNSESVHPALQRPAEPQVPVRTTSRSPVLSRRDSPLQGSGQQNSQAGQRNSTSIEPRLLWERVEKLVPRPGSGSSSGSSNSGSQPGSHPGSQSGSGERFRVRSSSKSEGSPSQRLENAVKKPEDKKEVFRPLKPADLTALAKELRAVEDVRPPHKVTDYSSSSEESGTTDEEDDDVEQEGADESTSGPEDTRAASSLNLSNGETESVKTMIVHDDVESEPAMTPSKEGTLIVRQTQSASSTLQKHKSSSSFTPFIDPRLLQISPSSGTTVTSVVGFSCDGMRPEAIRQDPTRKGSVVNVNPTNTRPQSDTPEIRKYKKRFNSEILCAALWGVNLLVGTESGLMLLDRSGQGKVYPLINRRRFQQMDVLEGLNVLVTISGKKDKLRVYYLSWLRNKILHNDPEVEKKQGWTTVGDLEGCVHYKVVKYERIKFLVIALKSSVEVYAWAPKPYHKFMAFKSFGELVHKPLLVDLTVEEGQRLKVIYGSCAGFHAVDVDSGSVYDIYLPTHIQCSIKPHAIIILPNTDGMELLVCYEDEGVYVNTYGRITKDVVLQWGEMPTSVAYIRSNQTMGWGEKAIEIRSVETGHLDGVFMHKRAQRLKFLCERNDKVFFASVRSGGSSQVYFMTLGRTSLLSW
Chain of Mitogen-activated protein kinase kinase kinase kinase 2 (Q12851 whole entry): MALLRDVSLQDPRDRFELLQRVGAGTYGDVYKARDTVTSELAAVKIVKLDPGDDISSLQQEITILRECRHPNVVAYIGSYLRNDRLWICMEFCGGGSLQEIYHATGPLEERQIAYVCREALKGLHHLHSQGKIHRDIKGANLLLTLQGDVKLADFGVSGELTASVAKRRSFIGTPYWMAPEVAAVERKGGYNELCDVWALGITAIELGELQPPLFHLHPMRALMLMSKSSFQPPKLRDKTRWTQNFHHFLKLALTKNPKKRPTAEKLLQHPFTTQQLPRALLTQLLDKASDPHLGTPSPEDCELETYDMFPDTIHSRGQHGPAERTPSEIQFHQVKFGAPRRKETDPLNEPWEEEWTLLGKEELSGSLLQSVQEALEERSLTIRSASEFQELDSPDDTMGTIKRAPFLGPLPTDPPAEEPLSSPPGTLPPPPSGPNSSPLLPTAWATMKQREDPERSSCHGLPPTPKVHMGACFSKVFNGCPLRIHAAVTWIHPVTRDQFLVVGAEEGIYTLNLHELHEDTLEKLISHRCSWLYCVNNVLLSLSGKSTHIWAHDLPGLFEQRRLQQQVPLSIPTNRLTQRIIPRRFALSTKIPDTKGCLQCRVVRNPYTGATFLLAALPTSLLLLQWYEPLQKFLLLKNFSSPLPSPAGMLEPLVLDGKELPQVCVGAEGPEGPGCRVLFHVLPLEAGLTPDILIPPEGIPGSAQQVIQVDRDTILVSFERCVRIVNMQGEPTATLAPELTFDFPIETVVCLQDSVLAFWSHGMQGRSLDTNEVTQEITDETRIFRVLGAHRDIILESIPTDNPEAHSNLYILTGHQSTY
Chain of Dual specificity protein kinase CLK4 (Q9HAZ1 whole entry): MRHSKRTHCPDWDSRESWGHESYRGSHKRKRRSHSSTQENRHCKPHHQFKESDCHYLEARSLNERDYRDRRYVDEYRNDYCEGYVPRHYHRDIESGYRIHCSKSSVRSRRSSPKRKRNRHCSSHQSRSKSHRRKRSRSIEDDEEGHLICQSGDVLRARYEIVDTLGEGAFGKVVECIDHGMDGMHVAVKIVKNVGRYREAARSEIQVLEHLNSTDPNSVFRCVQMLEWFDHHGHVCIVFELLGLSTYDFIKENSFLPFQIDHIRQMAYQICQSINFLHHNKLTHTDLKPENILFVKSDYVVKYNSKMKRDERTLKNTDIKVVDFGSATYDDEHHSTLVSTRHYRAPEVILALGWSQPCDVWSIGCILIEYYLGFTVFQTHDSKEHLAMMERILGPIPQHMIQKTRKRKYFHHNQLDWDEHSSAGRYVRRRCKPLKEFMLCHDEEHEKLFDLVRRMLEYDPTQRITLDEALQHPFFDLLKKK
Chain of Activin receptor type-1 (Q04771 whole entry): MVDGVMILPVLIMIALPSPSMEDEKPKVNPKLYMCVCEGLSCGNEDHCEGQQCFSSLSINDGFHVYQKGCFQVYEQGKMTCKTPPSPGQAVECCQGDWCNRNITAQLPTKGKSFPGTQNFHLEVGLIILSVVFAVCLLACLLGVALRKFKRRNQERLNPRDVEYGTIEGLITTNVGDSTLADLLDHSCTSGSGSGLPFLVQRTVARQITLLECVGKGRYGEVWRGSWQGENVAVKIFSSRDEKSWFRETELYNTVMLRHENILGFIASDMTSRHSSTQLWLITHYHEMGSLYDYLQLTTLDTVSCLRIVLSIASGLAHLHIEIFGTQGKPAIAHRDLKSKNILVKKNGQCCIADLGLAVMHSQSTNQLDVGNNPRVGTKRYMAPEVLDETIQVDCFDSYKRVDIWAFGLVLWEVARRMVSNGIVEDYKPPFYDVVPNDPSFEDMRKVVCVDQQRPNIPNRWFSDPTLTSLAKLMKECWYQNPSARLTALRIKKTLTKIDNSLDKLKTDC
Chain of Phosphomannomutase 2 (O15305 whole entry): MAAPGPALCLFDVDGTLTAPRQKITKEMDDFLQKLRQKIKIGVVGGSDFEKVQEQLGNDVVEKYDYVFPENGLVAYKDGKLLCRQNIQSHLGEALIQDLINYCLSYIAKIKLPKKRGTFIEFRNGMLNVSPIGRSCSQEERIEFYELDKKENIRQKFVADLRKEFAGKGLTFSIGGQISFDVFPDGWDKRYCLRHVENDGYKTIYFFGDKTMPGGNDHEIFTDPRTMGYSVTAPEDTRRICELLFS

In the case of `COc1ccc(-c2nnc(S)[nH]2)cc1`, the IC50 [1] is reported as > 99 µM (inactive), the IC50 [2] is reported as > 100 µM (inactive) and the IC50 [3] is reported as 1.22 µM (active). The IC50 (Leucine aminopeptidase) was 39.5 µM (active), the AC50 [4] was 0.008 µM (active) and the IC50 [5] was 50.1 µM (active). For the same compound, the IC50 (Phosphomannomutase 2) was > 100 µM (inactive), the IC50 [6] was > 99 µM (inactive) and the EC50 [7] was > 112 µM (not active). For the same compound, the IC50 [8] was 1.19 µM (active) and the IC50 [9] was 1.95 µM (active).
In the case of `Nc1nc2ncc(-c3ccccc3)cn2n1`, the Ki [10] is reported as 50.1 µM (active), the Ki [11] is reported as 25.1 µM (active) and the Ki [12] is reported as 31.6 µM (active). For the same compound, the Ki [13] was 25.1 µM (active), the Ki (Activin receptor type-1) was 39.8 µM (active) and the Ki [14] was 50.1 µM (active). For the same compound, the Ki (Focal adhesion kinase 1) was 100 µM (active), the Ki [15] was 50.1 µM (active) and the Ki [16] was 63.1 µM (active). The Ki [17] was 100 µM (active), the Ki [18] was 79.4 µM (active) and the Ki [19] was 15.8 µM (active). The Ki [20] was 50.1 µM (active).
With `Clc1cc2nnc(-c3ccccc3)n2cn1` the Ki [21] was 50.1 µM (active), the Ki [12] was 79.4 µM (active) and the Ki [13] was 39.8 µM (active). The Ki [22] was 20 µM (active), the Ki (Aurora kinase B) was 25.1 µM (active) and the Ki [23] was 15.8 µM (active). For the same compound, the Ki [18] was 12.6 µM (active), the Ki [19] was 63.1 µM (active) and the Ki [24] was 63.1 µM (active).
For `CC(C)(O)c1nnc2ccc(-c3c(-c4ccc(F)cc4F)nc4occn34)nn12`, the Ki [25] was 2.51 µM (active), the Ki [14] was 3.16 µM (active) and the Ki [26] was 5.01 µM (active).
For `CCc1cnn(Cc2cccc3ccccc23)c(=O)c1C(C#N)c1ccccc1` (centres undefined), the IC50 [27] was 15.2 µM (inactive) and the IC50 [28] was 15.2 µM (inactive).
In the case of `CCn1c(=C(C#N)C(=O)O)sc(=CNc2ccccc2)c1=O`, the Ki [29] is reported as 5.01 µM (active), the Ki [10] is reported as 1.58 µM (active) and the Ki [30] is reported as 6.31 µM (active). For the same compound, the Ki [31] was 1.58 µM (active), the Ki [32] was 5.01 µM (active) and the Ki [33] was 1.58 µM (active).
With `Cc1[nH]c2ccccc2c1C(=O)COC(=O)c1ccc([N+](=O)[O-])s1` the CC50 [34] was 29 µM (active), the EC50 [35] was > 30 µM (not active) and the CC50 [36] was 16.3 µM (active). For the same compound, the CC50 [37] was 20.7 µM (active), the CC50 [38] was 30.3 µM (active) and the CC50 [39] was 32.2 µM (active). The EC50 [40] was 1.75 µM (active), the CC50 [41] was 25.7 µM (active) and the IC50 (cells) was 3.59 µM (active). The CC50 [42] was 25.1 µM (active), the CC50 [43] was > 20 µM (active) and the CC50 [44] was 21 µM (active). For the same compound, the CC50 [45] was 32.3 µM (active), the CC50 [46] was > 63.9 µM (active) and the CC50 [47] was 29.6 µM (active).

Source: ChEMBL document CHEMBL1201862, “PubChem BioAssay data set” (2004)
